According to patent publication US20080014186A1, “Hla-A24 or Hla-A2 Binding Peptides of Parathyroid Hormone-Related Protein” (GREEN PEPTIDE CO., LTD., priority 2004, published 2008):

What was measured:
[1] = system: PBMCs of HLA-A2^+ healthy donors and prostate cancer patients; experiment: Assay for peptide-specific CTLs in PBMCs (IFN-γ ELISA, peptide-pulsed T2 cells); assay type: cell-based, human; conditions: for INF-γ production: T2 cells
[2] = system: IgG in plasma of HLA-A2^+ healthy donors and prostate cancer patients; experiment: Peptide-specific IgG in plasma by ELISA (HLA-A2-binding PTHrP peptides); set-up: species or system human; conditions: for IgG reactive to the peptide in plasma (difference of OD): 1:100-diluted plasma
Description: Peptide-specific IgG levels in the plasma were measured by ELISA, as previously reported. In brief, peptide (20 μg/well)-immobilized plates were blocked with Block Ace (Yukijirushi, Tokyo, Japan) and washed with 0.05% Tween20-PBS, after which 100 μl/well of plasma sample diluted with 0.05% Tween20-Block Ace was added to the plate. After 2 hours incubation at 37° C., the plates were washed and further incubated for 2 hours with a 1:1000-diluted rabbit anti-human IgG (γ-chain-specific) (DAKO, Glostrup, Denmark). The plates were washed, and then 100 μl of 1:100-diluted goat anti-rabbit IgG-conjugated horseradish peroxidase (EnVision, DAKO) was added to each well, and the plates were then incubated at room temperature for 40 min. After the plates were washed once, 100 μl/well of tetramethyl benzidine substrate solution (KPL, Guildford, UK) was added, and the reaction was stopped by the addition of 1 M phosphoric acid. The values are shown as optical density (OD) units/ml, and responses to the HIV peptide were subtracted. IgG reactive to a corresponding PTHrP peptide was judged to be positive when the difference of the OD in 1:100-diluted plasma exceeded 0.05. The results that IgG reactive to either the PTHrP102-111 or the […] peptide was detected in 8 of 10 healthy donors and in 7 of 10 prostate cancers are shown in Table 2 hereinafter.
In a similar way to Example 3, it was examined whether IgGs reactive to peptides of PTHrP 42-51 and PTHrP 59-67 could be detected in the plasma of 10 healthy donors and 10 cancer patients. The cut-off value at 1:100-diluted plasma was ODO.054.

[3] = HLA-A2^+ prostate cancer patients

For “TSTTSLELD [PTHrP 165-173, previously reported PTHrP peptide generating CTLs from HLA-A*0201 healthy donors [17], reference compound]”, the INF-γ production ([1]; HLA-A2^+ healthy donor #1 (A0201)) was 0 pg/mL, the INF-γ production ([1]; HLA-A2^+ healthy donor #2 (A0201)) was 222 pg/mL and the INF-γ production ([1]; HLA-A2^+ healthy donor #3 (A0201)) was 0 pg/mL. The INF-γ production ([1]; HLA-A2^+ healthy donor #4 (A0201)) was 294 pg/mL, the INF-γ production ([1]; HLA-A2^+ healthy donor #5 (A0206)) was 0 pg/mL and the INF-γ production ([1]; HLA-A2^+ healthy donor #6 (A0206)) was 0 pg/mL. The INF-γ production ([1]; HLA-A2^+ healthy donor #7 (A0206)) was 27 pg/mL, the INF-γ production ([1]; HLA-A2^+ healthy donor #8 (A0206)) was 325 pg/mL and the INF-γ production ([1]; HLA-A2^+ healthy donor #9 (A0206)) was 395 pg/mL. For the same sequence, the INF-γ production ([1]; HLA-A2^+ healthy donor #10 (A0207)) was 46 pg/mL, the “induced peptide-specific CTLs, number of donors” value ([1]; HLA-A2^+ healthy donors) was 4 of 10 and the “Total (donors with significant peptide-specific IFN-γ production / donors tested)” value ([1]; HLA-A2^+ healthy donors, p < 0.05) was 4/10. It also gave an INF-γ production ([1]; HLA-A2^+ prostate cancer patient #1 (A0206)) of 202 pg/mL, an INF-γ production ([1]; HLA-A2^+ prostate cancer patient #2 (A0210)) of 26 pg/mL and an INF-γ production ([1]; HLA-A2^+ prostate cancer patient #3 (A0210)) of 60 pg/mL. For the same sequence, the INF-γ production ([1]; HLA-A2^+ prostate cancer patient #4 (A0206)) was 151 pg/mL, the INF-γ production ([1]; HLA-A2^+ prostate cancer patient #5 (A0206)) was 103 pg/mL and the INF-γ production ([1]; HLA-A2^+ prostate cancer patient #6 (A0207)) was 0 pg/mL. It also gave an INF-γ production ([1]; HLA-A2^+ prostate cancer patient #7 (A0206)) of 0 pg/mL, an INF-γ production ([1]; HLA-A2^+ prostate cancer patient #8 (A0206)) of 80 pg/mL and an INF-γ production ([1]; HLA-A2^+ prostate cancer patient #9 (A0201)) of 0 pg/mL. The INF-γ production ([1]; HLA-A2^+ prostate cancer patient #10 (A0201)) was 24 pg/mL, the “induced peptide-specific CTLs (peptide-specific IFN-γ production), number of patients” value [1, 3] was 3 of 10 and the “Total (patients with significant peptide-specific IFN-γ production / patients tested)” value ([1]; HLA-A2^+ prostate cancer patients, p < 0.05) was 3/10. For the same sequence, the “IgG reactive to the peptide in plasma (difference of OD)” value (from here on “IgG reactive … (difference of OD)”) ([2]; HLA-A2^+ healthy donor #1) was “— (IgG reactive to a corresponding peptide was judged to be positive when a difference of OD in a 1:100-diluted plasma was more than 0.054.)”, the “IgG reactive … (difference of OD)” value ([2]; HLA-A2^+ healthy donor #2) was “— (IgG reactive to a corresponding peptide was judged to be positive when a difference of OD in a 1:100-diluted plasma was more than 0.054.)” and the “IgG reactive … (difference of OD)” value ([2]; HLA-A2^+ healthy donor #3) was “— (IgG reactive to a corresponding peptide was judged to be positive when a difference of OD in a 1:100-diluted plasma was more than 0.054.)”. For the same sequence, the “IgG reactive … (difference of OD)” value ([2]; HLA-A2^+ healthy donor #4) was “— (IgG reactive to a corresponding peptide was judged to be positive when a difference of OD in a 1:100-diluted plasma was more than 0.054.)”, the “IgG reactive … (difference of OD)” value ([2]; HLA-A2^+ healthy donor #5) was “— (IgG reactive to a corresponding peptide was judged to be positive when a difference of OD in a 1:100-diluted plasma was more than 0.054.)” and the “IgG reactive … (difference of OD)” value ([2]; HLA-A2^+ healthy donor #6) was 0.0865 OD. For the same sequence, the “IgG reactive … (difference of OD)” value ([2]; HLA-A2^+ healthy donor #7) was 0.089 OD, the “IgG reactive … (difference of OD)” value ([2]; HLA-A2^+ healthy donor #8) was 0.193 OD and the “IgG reactive … (difference of OD)” value ([2]; HLA-A2^+ healthy donor #9) was 0.0925 OD. The “IgG reactive … (difference of OD)” value ([2]; HLA-A2^+ healthy donor #10) was 0.099 OD, the “Total (IgG-positive donors / donors tested)” value ([2]; HLA-A2^+ healthy donors) was 5/10 and the “IgG reactive … (difference of OD)” value ([2]; HLA-A2^+ prostate cancer patient #1) was “— (IgG reactive to a corresponding peptide was judged to be positive when a difference of OD in a 1:100-diluted plasma was more than 0.054.)”. For the same sequence, the “IgG reactive … (difference of OD)” value ([2]; HLA-A2^+ prostate cancer patient #2) was “— (IgG reactive to a corresponding peptide was judged to be positive when a difference of OD in a 1:100-diluted plasma was more than 0.054.)”, the “IgG reactive … (difference of OD)” value ([2]; HLA-A2^+ prostate cancer patient #3) was 0.078 OD and the “IgG reactive … (difference of OD)” value ([2]; HLA-A2^+ prostate cancer patient #4) was “— (IgG reactive to a corresponding peptide was judged to be positive when a difference of OD in a 1:100-diluted plasma was more than 0.054.)”. For the same sequence, the “IgG reactive … (difference of OD)” value ([2]; HLA-A2^+ prostate cancer patient #5) was “— (IgG reactive to a corresponding peptide was judged to be positive when a difference of OD in a 1:100-diluted plasma was more than 0.054.)”, the “IgG reactive … (difference of OD)” value ([2]; HLA-A2^+ prostate cancer patient #6) was “— (IgG reactive to a corresponding peptide was judged to be positive when a difference of OD in a 1:100-diluted plasma was more than 0.054.)” and the “IgG reactive … (difference of OD)” value ([2]; HLA-A2^+ prostate cancer patient #7) was “— (IgG reactive to a corresponding peptide was judged to be positive when a difference of OD in a 1:100-diluted plasma was more than 0.054.)”. The “IgG reactive … (difference of OD)” value ([2]; HLA-A2^+ prostate cancer patient #8) was “— (IgG reactive to a corresponding peptide was judged to be positive when a difference of OD in a 1:100-diluted plasma was more than 0.054.)”, the “IgG reactive … (difference of OD)” value ([2]; HLA-A2^+ prostate cancer patient #9) was “— (IgG reactive to a corresponding peptide was judged to be positive when a difference of OD in a 1:100-diluted plasma was more than 0.054.)” and the “IgG reactive … (difference of OD)” value ([2]; HLA-A2^+ prostate cancer patient #10) was 0.1515 OD. The “Total (IgG-positive patients / patients tested)” value [2, 3] was 2/10.
